Laboratory results from ChEMBL document CHEMBL1150658, “New ent-kaurane diterpenoids with anti-platelet aggregation activity from Annona squamosa” (2002).

What was measured:
Assay type in all cases: functional
Details in all cases: Oryctolagus cuniculus
[1] = Antiplatelet activity against washed rabbit platelet assessed as inhibition of collagen-induced platelet aggregation at 200 uM
[2] = Antiplatelet activity against washed rabbit platelet assessed as inhibition of platelet activating factor-induced platelet aggregation at 200 uM
[3] = Antiplatelet activity against washed rabbit platelet assessed as inhibition of thrombin-induced platelet aggregation at 200 uM
[4] = Antiplatelet activity against washed rabbit platelet assessed as inhibition of arachidonic acid-induced platelet aggregation at 200 uM

Compound | inhibition at 200 µM [1] | inhibition at 200 µM [2] | inhibition at 200 µM [3] | inhibition at 200 µM [4]
C=C1C[C@@]23CC[C@H]4[C@@](C)(CCC[C@@]4(C)C(=O)O)[C@@H]2CC[C@@H]1C3 [KAURENOIC ACID] | 100% | 12.6% | 5.6% | 24.8%
C[C@@]12CCC[C@@](C)(O)[C@H]1CC[C@@]13C[C@H](CC[C@H]12)[C@](O)(CO)C3 [ANNOSQUAMOSIN B] | 21.1% | 8.5% | 1.6% | 8.7%
C[C@@]12CCC[C@@](C)(C(=O)O)[C@H]1CC[C@@]13C[C@@H](CC[C@H]12)[C@H](C(=O)O)C3 | 56.9% | 15.2% | 6% | 15.4%
C[C@@]12CCC[C@@](C)(C=O)[C@H]1CC[C@@]13C[C@@H](CC[C@H]12)[C@](O)(CO)C3 | 17.6% | 5.5% | 0% | 9.6%
C[C@@]12CCC[C@@](C)(C(=O)O)[C@H]1CC[C@]13C[C@@H](CO)[C@H](CC[C@H]12)C3 | 23.8% | 7.4% | 2.8% | 4.1%
C[C@@]12CCC[C@@](C)(O)[C@H]1CC[C@@]13C[C@@H](CC[C@H]12)[C@@H](C(=O)O)C3 | 30.5% | 13.3% | 2% | 4.5%
CC(=O)O[C@@]1(CO)C[C@@]23CC[C@H]4[C@@](C)(CCC[C@@]4(C)O)[C@@H]2CC[C@@H]1C3 [ANNOSQUAMOSIN D] | 10.6% | 9.3% | 2% | 4.9%
C[C@@]12CCC[C@@](C)(C(=O)O)[C@H]1CC[C@@]13C[C@@H](CC[C@H]12)[C@](O)(CO)C3 | 8.6% | 14.4% | 6.8% | 14.9%
C[C@@]12CCC[C@@](C)(C=O)[C@H]1CC[C@@]13C[C@@H](CC[C@H]12)[C@@](O)(CO)C3 | 4.9% | 10.3% | 3.2% | 0.5%
CC(=O)OC[C@]1(O)C[C@@]23CC[C@H]4[C@@](C)(CCC[C@@]4(C)C(=O)O)[C@@H]2CC[C@H]1C3 | 30.1% | 11.1% | 8% | 10.8%
C[C@@]12CCC[C@@](C)(C=O)[C@H]1CC[C@@]13C[C@@H](CC[C@H]12)[C@@H](C(=O)O)C3 | 100% | 11.8% | 6.8% | 100%
C[C@@]12CCC[C@@](C)(C(=O)O)[C@H]1CC[C@@]13C[C@H](CC[C@H]12)[C@@](O)(CO)C3 | 2.3% | 8.9% | 0.4% | 7.2%
